# Source: article PMC9866588, “Novel 7-Chloro-4-aminoquinoline-benzimidazole Hybrids as Inhibitors of Cancer Cells Growth: Synthesis, Antiproliferative Activity, in Silico ADME Predictions, and Docking” (Molecules, 2023)
# Key:
# [1] = tested on: HeLa (human cervical adenocarcinoma) cells; test: MTT antiproliferative assay, HeLa; format: cell-based; details: 72 h, mean ± SD of three independent experiments
# Protocol: (§1) The growth inhibition activity was assessed according to the slightly modified procedure performed at the National Cancer Institute, Developmental Therapeutics Program.
# (§2) The examined compounds were dissolved in DMSO (1 × 10^−2 M). The experiments were carried out on seven human tumor cell lines and a normal cell line. The following cell lines were used: HeLa (human cervical adenocarcinoma; purchased from ATCC), CaCo-2 (human colorectal adenocarcinoma), MCF-7 (human breast adenocarcinoma), CCRF-CEM (human acute lymphoblastic leukemia), Hut78 (T-cell lymphoma), THP-1 (acute monocytic leukemia), Burkitt lymphoma (Raji), and MDCK1 (Madine–Darby canine kidney). The MDCK1 cells were used between 24 and 26 passages.
# (§3) The adherent cells were cultured in Dulbecco’s modified Eagle medium—DMEM (Gibco, Termo Fisher Scientific Inc., Leicestershire, England, UK), supplemented with 10% heat-inactivated fetal bovine serum (FBS, Gibco, Termo Fisher Scientific Inc., Leicestershire, England, UK), 2 mM glutamine, and 100U/0.1mg penicillin/streptomycin. The cells in suspension were cultured in RPMI 1640 (Gibco, Termo Fisher Scientific Inc., Leicestershire, England, UK) medium, supplemented with 10% FBS (Gibco, Termo Fisher Scientific Inc., Leicestershire, England, UK), 2 mM glutamine, 1 mM sodium pyruvate, and 10 mM HEPES. The cells were grown in a humidified atmosphere under the conditions of 37 °C/5% of CO2 gas in the CO2 incubator (IGO 150 CELLlife^TM, JOUAN, Thermo Fisher Scientific, Waltham, MA, USA).
# (§4) The adherent cells (HeLa, CaCo-2, MCF-7, and MDCK-1) were plated in 96-well flat bottom plates (Greiner, Frickenhausen, Austria) at a concentration of 2 × 10^4 cells/mL. The suspension cells (Raji, THP-1, CCRF-CEM and Hut78) were plated in 96-well microtiter plates (Sarstead, Newton, NC, USA) at a concentration of 1 × 10^5 cells/mL. Twenty-four hours later, the cells were treated with test agents in […] and incubated for a further 72 h. The working dilutions were freshly prepared on the day of testing. The solvent was also tested for eventual inhibitory activity by adjusting its concentration to be the same as in the working concentrations. After 72 h of incubation, the cell growth rate was evaluated by performing the MTT assay, which detects dehydrogenase activity in viable cells. For this purpose, upon completion of the incubation period, the growth medium was discarded and 50 μL of MTT was added to each well at a concentration of 5 mg/mL. After four hours of incubation at 37 °C, the water insoluble MTT-formazan crystals were dissolved in 150 μL of dimethyl-sulfoxide (DMSO) for the adherent cells and in 10% SDS with 0.01 mol/L HCl for the cells grown in suspension. The absorbance (OD, optical density) was measured on a microplate reader (iMark, BIO RAD, Hercules, CA, USA) at 595 nm.
# (§5) The percentage of live cells was calculated as follows: % = OD (sample) − OD (background)/OD (control) − OD (background) × 100.
# (§6) The optical density (OD) of the background for the adherent cells is the OD of the MTT solution and DMSO; the OD (background) for the suspension cells is the OD of the culture medium with MTT and 10% SDS with 0.01 mol/L HCl; the OD (control) is the OD of the cells grown without the tested compounds.
# (§7) The calculation of the GI50 value curves and QC analysis was performed using the Excel tools and GraphPadPrism software (La Jolla, CA, USA), v. 5.03. Briefly, individual concentration effect curves are generated by plotting the logarithm of the concentration of the tested compounds (X) vs. the corresponding percent inhibition values (Y) using the least squares fit. The best-fit GI50 values are calculated using log (inhibitor) versus normalized response—variable slope equation, where Y Ľ 100/(1 ţ 10 ((LogIC50 _ X) × HillSlope)). The QC criteria parameters (Z0, S:B, R2, HillSlope) were checked for every GI50 curve.
# [2] = tested on: CaCo-2 (human colorectal adenocarcinoma) cells; test: MTT antiproliferative assay, CaCo-2; format: cell-based; details: 72 h, mean ± SD of three independent experiments
# Protocol: as §1, §2, §3, §4, §5, §6, §7
# [3] = tested on: MCF-7 (human breast adenocarcinoma) cells; test: MTT antiproliferative assay, MCF-7; format: cell-based; details: MCF7, 72 h, mean ± SD of three independent experiments
# Protocol: as §1, §2, §3, §4, §5, §6, §7
# [4] = MTT antiproliferative assay, ranges stated over several cell lines; format: cell-based; details: human (tumor cell lines) and dog (MDCK1); abstract, range over cell lines; read-out: GI50 range (strong cytotoxic activity)
# Protocol: as §1, §2, §3, §4, §5, §6, §7
# [5] = tested on: normal (MDCK1) and tumor cell lines; test: as above; format: cell-based; details: MDCK1; range over tumor cell lines; read-out: GI50 range, tumor cell lines
# Protocol: as §1, §2, §3, §4, §5, §6, §7
# HuT78 cells = test: Mitochondrial membrane potential (∆Ψm), TMRE flow cytometry; format: cell-based, human; details: HuT78, 5 μM, 24 h
# Protocol: Changes in the (∆Ψm) were measured using TMRE (tetramethylrhodamine, ethyl ester and perchlorate) dye. In brief, the tested cells (HuT 78) were plated in 6-well plates at a concentration of 5 × 10^5 cells per well and treated with 5 μM of the compounds 5d and 12d. After 24 h of treatment, the cells were collected, centrifuged for 6 min at 1100 rpm, and stained with 200 nM of TMRE dye according to the kit protocol (TMRE Mitochondrial Membrane Potential Assay Kit, abcam, Cambridge, UK). The positive control cells were treated with 20 μM FCCP (carbonyl cyanide-p-trifluoromethoxyphenylhydrazone) for 10 min. The cells were analyzed by flow cytometry (BD FACSCalibur, Becton Dickinson, San Jose, CA, USA) and FlowJo software (FlowJo, LLC, Ashland, OR, USA).
smiles,measurement,setting,value
"Clc1ccc2c(Nc3cccc(-c4nc5ccccc5[nH]4)c3)ccnc2c1 [Compound 5d, N-(3-(1H-benzo[d]imidazol-2-yl)phenyl)-7-chloroquinolin-4-amine]",GI50,[1],700 ± 100 nM
same,GI50,[2],1000 ± 100 nM
same,GI50,[3],33600 ± 8300 nM
same,GI50 at 72 h,[4],400 to 8000 nM
same,GI50,[5],400 to 15600 nM
same,cells with mitochondrial membrane disruption / change in ∆Ψm,HuT78 cells,23.9%
